# Target: T1, Glutamate receptor ionotropic, NMDA 2C (Rattus norvegicus, UniProt Q00961)
# Assay: Ability to displace [3H]- TCP from PCP receptor in tissue homogenate preparation of fresh whole rat brain minus cerebellum.
# Format: tissue-based
# T1 sequence (Q00961 whole entry): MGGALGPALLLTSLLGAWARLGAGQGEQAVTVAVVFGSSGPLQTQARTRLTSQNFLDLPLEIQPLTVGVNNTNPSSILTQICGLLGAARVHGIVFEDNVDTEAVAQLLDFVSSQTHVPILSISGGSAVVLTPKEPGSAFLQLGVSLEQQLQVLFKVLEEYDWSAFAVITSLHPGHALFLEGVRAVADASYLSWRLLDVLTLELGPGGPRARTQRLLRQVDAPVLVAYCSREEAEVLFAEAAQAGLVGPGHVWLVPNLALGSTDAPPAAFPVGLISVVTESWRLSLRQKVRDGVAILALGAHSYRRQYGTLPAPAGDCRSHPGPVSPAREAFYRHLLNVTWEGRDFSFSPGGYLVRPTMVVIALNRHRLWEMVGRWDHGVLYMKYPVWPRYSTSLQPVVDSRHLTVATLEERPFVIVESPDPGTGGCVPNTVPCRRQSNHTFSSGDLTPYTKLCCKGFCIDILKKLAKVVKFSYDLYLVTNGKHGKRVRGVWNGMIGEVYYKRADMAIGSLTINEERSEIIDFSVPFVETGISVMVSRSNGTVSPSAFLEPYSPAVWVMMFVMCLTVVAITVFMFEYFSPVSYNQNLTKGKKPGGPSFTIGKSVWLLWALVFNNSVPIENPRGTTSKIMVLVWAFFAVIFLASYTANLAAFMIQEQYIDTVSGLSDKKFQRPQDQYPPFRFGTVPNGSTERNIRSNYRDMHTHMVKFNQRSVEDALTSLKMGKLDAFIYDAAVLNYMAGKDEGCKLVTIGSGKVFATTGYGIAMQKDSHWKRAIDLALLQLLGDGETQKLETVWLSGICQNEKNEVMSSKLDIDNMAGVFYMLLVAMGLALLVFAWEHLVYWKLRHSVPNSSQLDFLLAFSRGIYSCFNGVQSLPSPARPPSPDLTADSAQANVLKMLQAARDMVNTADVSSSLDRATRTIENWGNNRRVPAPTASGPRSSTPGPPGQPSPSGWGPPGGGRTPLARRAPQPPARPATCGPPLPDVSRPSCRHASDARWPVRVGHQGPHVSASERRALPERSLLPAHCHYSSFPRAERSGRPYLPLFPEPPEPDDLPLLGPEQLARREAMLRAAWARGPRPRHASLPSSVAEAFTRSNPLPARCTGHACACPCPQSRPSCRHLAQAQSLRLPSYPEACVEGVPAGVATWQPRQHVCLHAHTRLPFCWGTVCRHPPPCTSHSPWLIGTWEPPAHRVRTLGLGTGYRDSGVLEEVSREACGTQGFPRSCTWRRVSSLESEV
row,Compound,Ki
1,CSc1cccc(C2(N3CC=CCC3)CCCCC2)c1,231 nM
2,C=Cc1cccc(C2(N3CC=CCC3)CCCCC2)c1,114 nM
3,Cc1cccc(C2(N3CC=CCC3)CCCCC2)c1,81 nM
4,COCOc1cccc(C2(N3CC=CCC3)CCCCC2)c1,92 nM
5,Fc1cccc(C2(N3CC=CCC3)CCCCC2)c1,281 nM
6,O=Cc1cccc(C2(N3CC=CCC3)CCCCC2)c1,324 nM
7,FC(F)(F)c1cccc(C2(N3CC=CCC3)CCCCC2)c1,422 nM
8,CC(=O)Oc1cccc(C2(N3CC=CCC3)CCCCC2)c1,6 nM
9,C1=CCN(C2(c3ccccc3)CCCCC2)CC1,37 nM

# Target: T1, Glutamate receptor ionotropic, NMDA 2C
# Assay: Ability to displace [3H]TCP from PCP receptor in tissue homogenate preparation of fresh whole rat brain minus cerebellum.
# Format: tissue-based
row,Compound,Ki
1,Oc1cccc(C2(N3CC=CCC3)CCCCC2)c1,7 nM
2,COc1cccc(C2(N3CC=CCC3)CCCCC2)c1,33 nM
3,C1=CCN(C2(c3cccs3)CCCCC2)CC1,12 nM
4,COc1cc(OC)cc(C2(N3CC=CCC3)CCCCC2)c1,8600 nM
5,C1=CCN(C2(c3cccc(C4OCCO4)c3)CCCCC2)CC1,601 nM
6,C1=CCN(C2(c3cccc(OCc4ccccc4)c3)CCCCC2)CC1,733 nM
7,O/N=C/c1cccc(C2(N3CC=CCC3)CCCCC2)c1,56 nM

# From ChEMBL document CHEMBL1124878, “Synthesis, phencyclidine-like pharmacology, and antiischemic potential of meta-substituted 1-(1-phenylcyclohexyl)-1,2,3,6-tetrahydropyridines” (J Med Chem, 1990)
